Test results reported in PMC10227015, “From a drug repositioning to a structure-based drug design approach to tackle acute lymphoblastic leukemia” (Nature Communications, 2023).

Experiments:
Swiss male mice = assay: Acute in vivo toxicity, unique IP injection; conditions: mice, from 20 mg/kg/day
ABL1-nonphosphorylated = target: T1, ABL1-nonphosphorylated (Homo sapiens, UniProt P00519); assay: KINOMEscan competition binding; conditions: OR0642 1 µM; read-out: %Control
T1 construct: purchased Eurofins DiscoverX (KINOMEscan scanEDGE 97)
T1 sequence (P00519 whole entry): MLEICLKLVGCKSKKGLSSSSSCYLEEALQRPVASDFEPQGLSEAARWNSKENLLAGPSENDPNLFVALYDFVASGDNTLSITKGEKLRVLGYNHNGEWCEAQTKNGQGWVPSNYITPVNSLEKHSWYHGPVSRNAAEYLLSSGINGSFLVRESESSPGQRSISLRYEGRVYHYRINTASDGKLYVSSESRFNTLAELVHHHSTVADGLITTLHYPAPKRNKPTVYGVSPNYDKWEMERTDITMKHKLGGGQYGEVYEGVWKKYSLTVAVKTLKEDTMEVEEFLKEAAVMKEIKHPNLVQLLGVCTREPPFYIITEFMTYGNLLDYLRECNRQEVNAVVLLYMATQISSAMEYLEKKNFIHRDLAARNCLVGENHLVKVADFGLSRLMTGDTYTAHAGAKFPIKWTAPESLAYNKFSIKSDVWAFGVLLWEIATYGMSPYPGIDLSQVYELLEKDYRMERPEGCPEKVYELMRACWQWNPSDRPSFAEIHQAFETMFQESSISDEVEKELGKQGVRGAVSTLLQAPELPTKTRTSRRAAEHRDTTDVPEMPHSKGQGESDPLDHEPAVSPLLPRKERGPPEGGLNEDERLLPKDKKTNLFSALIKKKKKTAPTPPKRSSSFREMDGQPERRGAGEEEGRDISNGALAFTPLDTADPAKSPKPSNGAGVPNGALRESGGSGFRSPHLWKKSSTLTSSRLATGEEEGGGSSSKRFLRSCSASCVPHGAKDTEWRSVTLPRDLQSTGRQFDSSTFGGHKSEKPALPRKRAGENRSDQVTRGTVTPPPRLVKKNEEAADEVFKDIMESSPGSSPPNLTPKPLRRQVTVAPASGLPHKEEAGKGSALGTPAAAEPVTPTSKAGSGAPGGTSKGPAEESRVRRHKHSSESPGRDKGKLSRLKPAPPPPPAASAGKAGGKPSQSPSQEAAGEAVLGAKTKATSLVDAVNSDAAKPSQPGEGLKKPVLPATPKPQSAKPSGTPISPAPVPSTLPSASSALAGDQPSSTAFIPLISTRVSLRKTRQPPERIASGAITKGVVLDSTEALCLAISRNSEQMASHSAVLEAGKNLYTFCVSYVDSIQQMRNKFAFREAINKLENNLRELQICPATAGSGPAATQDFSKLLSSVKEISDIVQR
Protocol: (§1) Kinome profiling was provided by Eurofins DiscoverX Corporation. Determination of the % control activity for 97 kinases was obtained through an active site-directed competition binding assay that quantitatively measure interactions between compound and kinases. OR0642 was used at 1 μM.
(§2) Supplementary Table 3. KINOMEscan™ Profiling of OR0642. Competition binding assay to quantitatively measure interactions between OR0642 (1 µM) and 97 human kinases and disease relevant mutant variants.
(§3) Target Gene Symbol %Control Target Gene Symbol %Control […]

PIM2 = target: T2, PIM2 (Homo sapiens, UniProt Q9P1W9); assay: KINOMEscan competition binding; conditions: OR0642 1 µM; read-out: %Control
T2 construct: purchased Eurofins DiscoverX (KINOMEscan scanEDGE 97)
T2 sequence (Q9P1W9 whole entry): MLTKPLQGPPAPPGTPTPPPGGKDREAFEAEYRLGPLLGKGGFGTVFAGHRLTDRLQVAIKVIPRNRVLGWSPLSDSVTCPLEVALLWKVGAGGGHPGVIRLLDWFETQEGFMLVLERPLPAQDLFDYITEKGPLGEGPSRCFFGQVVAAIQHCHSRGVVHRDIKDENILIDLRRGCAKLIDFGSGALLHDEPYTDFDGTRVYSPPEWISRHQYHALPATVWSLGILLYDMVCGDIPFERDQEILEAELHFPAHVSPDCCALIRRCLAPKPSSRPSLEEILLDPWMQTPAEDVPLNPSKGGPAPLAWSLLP
Protocol: as §1, §2, §3

PIM3 = target: T3, PIM3 (Homo sapiens, UniProt Q86V86); assay: KINOMEscan competition binding; conditions: OR0642 1 µM; read-out: %Control
T3 construct: purchased Eurofins DiscoverX (KINOMEscan scanEDGE 97)
Protocol: as §1, §2, §3

PKAC-alpha = target: T4, PKAC-alpha (Homo sapiens, UniProt P17612); assay: KINOMEscan competition binding; conditions: OR0642 1 µM; read-out: %Control
T4 construct: purchased Eurofins DiscoverX (KINOMEscan scanEDGE 97)
Protocol: as §1, §2, §3

PLK3 = target: T5, PLK3 (Homo sapiens, UniProt Q9H4B4); assay: KINOMEscan competition binding; conditions: OR0642 1 µM; read-out: %Control
T5 construct: purchased Eurofins DiscoverX (KINOMEscan scanEDGE 97)
Protocol: as §1, §2, §3

PRKCE = target: T6, PRKCE (Homo sapiens, UniProt Q02156); assay: KINOMEscan competition binding; conditions: OR0642 1 µM; read-out: %Control
T6 construct: purchased Eurofins DiscoverX (KINOMEscan scanEDGE 97)
Protocol: as §1, §2, §3

ROCK2 = target: T7, ROCK2 (Homo sapiens, UniProt O75116); assay: KINOMEscan competition binding; conditions: OR0642 1 µM; read-out: %Control
T7 construct: purchased Eurofins DiscoverX (KINOMEscan scanEDGE 97)
T7 sequence (O75116 whole entry): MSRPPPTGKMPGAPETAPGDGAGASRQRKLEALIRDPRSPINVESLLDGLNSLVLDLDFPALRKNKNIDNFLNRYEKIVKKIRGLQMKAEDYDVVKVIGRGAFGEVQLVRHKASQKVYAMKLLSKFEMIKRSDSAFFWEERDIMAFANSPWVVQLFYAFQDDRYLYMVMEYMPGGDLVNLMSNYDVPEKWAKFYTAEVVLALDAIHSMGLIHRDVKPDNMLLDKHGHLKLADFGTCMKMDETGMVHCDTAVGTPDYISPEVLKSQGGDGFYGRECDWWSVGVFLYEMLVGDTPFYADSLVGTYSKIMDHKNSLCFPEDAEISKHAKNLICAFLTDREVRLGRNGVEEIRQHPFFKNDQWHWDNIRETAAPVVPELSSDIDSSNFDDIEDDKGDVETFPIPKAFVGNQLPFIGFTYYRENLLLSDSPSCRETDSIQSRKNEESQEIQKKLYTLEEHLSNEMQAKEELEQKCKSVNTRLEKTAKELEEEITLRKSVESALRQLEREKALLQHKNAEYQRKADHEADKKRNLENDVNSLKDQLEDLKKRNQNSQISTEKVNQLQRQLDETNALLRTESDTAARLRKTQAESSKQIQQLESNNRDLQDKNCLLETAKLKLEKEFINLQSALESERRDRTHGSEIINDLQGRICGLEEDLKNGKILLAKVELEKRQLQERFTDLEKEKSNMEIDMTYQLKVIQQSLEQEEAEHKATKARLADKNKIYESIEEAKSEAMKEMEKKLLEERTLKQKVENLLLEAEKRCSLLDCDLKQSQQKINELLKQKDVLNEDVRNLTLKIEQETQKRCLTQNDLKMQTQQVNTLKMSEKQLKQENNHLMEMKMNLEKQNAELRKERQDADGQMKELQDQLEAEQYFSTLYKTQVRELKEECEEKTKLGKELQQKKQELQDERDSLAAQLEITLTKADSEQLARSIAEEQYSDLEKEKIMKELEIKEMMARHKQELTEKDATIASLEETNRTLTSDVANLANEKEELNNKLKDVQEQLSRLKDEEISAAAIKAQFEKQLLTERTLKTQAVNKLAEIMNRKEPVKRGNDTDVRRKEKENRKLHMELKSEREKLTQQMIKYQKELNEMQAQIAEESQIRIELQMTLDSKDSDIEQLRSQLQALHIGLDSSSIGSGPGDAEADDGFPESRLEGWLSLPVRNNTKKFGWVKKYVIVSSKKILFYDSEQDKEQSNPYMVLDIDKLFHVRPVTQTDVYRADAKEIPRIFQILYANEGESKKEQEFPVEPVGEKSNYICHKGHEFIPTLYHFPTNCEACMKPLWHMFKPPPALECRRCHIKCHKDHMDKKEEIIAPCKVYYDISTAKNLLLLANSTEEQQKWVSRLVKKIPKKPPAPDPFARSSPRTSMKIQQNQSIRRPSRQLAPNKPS
Protocol: as §1, §2, §3

TGFBR1 = target: T8, TGFBR1 (Homo sapiens, UniProt P36897); assay: KINOMEscan competition binding; conditions: OR0642 1 µM; read-out: %Control
T8 construct: purchased Eurofins DiscoverX (KINOMEscan scanEDGE 97)
Protocol: as §1, §2, §3

TIE2 = target: T9, TIE2 (Homo sapiens, UniProt Q02763); assay: KINOMEscan competition binding; conditions: OR0642 1 µM; read-out: %Control
T9 construct: purchased Eurofins DiscoverX (KINOMEscan scanEDGE 97)
T9 sequence (Q02763 23-1124): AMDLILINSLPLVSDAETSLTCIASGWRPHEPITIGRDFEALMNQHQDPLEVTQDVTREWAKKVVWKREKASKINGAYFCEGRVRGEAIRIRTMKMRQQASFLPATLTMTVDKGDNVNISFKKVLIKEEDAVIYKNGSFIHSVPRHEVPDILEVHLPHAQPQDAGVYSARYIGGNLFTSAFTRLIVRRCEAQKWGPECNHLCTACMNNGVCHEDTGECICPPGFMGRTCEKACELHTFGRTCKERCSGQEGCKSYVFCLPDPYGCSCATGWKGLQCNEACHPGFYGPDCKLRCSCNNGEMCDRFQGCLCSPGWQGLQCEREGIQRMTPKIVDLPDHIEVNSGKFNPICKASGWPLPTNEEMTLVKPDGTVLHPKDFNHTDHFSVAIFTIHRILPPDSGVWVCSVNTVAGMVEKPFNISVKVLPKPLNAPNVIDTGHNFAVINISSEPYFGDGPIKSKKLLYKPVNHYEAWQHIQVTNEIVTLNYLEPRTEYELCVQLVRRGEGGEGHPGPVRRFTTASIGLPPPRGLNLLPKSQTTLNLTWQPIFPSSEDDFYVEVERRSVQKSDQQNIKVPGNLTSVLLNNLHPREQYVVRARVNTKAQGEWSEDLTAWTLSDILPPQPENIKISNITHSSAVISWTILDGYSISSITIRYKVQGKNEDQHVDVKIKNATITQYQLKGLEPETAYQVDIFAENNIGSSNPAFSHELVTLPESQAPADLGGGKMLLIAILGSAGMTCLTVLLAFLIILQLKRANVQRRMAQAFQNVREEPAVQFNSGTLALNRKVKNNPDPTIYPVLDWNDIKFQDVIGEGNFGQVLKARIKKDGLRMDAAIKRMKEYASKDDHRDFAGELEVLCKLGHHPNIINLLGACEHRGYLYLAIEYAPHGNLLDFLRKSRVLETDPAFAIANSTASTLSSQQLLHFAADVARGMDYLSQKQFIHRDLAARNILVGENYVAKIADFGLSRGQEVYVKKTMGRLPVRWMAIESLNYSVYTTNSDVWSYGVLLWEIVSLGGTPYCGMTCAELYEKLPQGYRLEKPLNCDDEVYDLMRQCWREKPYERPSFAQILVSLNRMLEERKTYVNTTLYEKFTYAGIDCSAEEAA
Protocol: as §1, §2, §3

[1] = target: T10, TYK2(JH1domain-catalytic) (Homo sapiens, UniProt P29597); assay: KINOMEscan competition binding; conditions: OR0642 1 µM; read-out: %Control
T10 construct: TYK2(JH1domain-catalytic); purchased Eurofins DiscoverX (KINOMEscan scanEDGE 97)
Protocol: as §1, §2, §3

VEGFR2 = target: T11, VEGFR2 (Homo sapiens, UniProt P35968); assay: KINOMEscan competition binding; conditions: OR0642 1 µM; read-out: %Control
T11 construct: purchased Eurofins DiscoverX (KINOMEscan scanEDGE 97)
Protocol: as §1, §2, §3

YANK3 = target: T12, YANK3 (Homo sapiens, UniProt Q86UX6); assay: KINOMEscan competition binding; conditions: OR0642 1 µM; read-out: %Control
T12 construct: purchased Eurofins DiscoverX (KINOMEscan scanEDGE 97)
T12 sequence (Q86UX6 whole entry): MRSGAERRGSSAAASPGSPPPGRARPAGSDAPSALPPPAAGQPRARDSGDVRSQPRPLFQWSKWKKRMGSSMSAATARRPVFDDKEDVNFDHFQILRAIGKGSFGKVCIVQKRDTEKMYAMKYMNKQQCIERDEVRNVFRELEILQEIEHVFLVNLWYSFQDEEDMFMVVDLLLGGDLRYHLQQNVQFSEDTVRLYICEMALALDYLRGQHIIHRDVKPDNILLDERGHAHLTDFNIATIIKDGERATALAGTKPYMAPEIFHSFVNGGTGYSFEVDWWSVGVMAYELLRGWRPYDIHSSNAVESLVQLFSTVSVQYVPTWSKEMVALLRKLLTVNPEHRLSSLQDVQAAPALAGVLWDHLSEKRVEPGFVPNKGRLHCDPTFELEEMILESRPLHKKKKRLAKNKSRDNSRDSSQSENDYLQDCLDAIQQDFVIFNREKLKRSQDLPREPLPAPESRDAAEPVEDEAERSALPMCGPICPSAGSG
Protocol: as §1, §2, §3

ZAP70 = target: T13, ZAP70 (Homo sapiens, UniProt P43403); assay: KINOMEscan competition binding; conditions: OR0642 1 µM; read-out: %Control
T13 construct: purchased Eurofins DiscoverX (KINOMEscan scanEDGE 97)
T13 sequence (P43403 whole entry): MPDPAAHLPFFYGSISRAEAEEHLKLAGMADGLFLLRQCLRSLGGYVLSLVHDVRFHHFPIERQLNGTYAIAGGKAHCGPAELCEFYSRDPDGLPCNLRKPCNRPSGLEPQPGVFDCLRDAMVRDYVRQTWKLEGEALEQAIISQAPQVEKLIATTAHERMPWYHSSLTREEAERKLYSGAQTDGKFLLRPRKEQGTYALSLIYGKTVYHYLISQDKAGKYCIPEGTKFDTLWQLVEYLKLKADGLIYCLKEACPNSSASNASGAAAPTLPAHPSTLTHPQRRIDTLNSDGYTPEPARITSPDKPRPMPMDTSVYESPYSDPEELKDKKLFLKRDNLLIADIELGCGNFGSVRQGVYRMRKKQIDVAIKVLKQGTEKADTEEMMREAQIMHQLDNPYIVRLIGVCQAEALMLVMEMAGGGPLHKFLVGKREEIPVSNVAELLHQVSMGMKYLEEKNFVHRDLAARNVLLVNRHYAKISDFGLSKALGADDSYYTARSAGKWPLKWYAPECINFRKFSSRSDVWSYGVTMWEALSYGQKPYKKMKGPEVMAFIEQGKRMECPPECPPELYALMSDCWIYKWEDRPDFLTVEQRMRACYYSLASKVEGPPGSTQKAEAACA
Protocol: as §1, §2, §3

p38-alpha = target: T14, p38-alpha (Homo sapiens, UniProt Q16539); assay: KINOMEscan competition binding; conditions: OR0642 1 µM; read-out: %Control
T14 construct: purchased Eurofins DiscoverX (KINOMEscan scanEDGE 97)
Protocol: as §1, §2, §3

PDX UPNT380 = assay: Ex vivo testing on PDX samples (viability, flow cytometry, 72 h); format: cell-based, human
Text: (§4) Bone marrow-infiltrating blasts from terminally mice bearing PDX as stated above were collected as established before. Extensive analysis (immunophenotype and molecular analysis) of matched primary and PDX samples used in the study are shown in Supplementary Table 7, showing that they remain stable. Briefly, after euthanasia, bone marrows from tibiae, hips, femurs, and vertebrae were isolated and blasts collected for subsequent ex vivo experiments. All samples used contained ≥90% blasts as determined by flow cytometry. For the cytotoxic evaluation of OR0642, blasts were then stained with CellTraceTM Violet (CTV, Thermo Fisher Scientific, C34557) prior seeding at 10,000 cells into 96-well plates under normal conditions or pre-plated with OP9-DL1 cells. Cells were cultured in RPMI 1640 supplemented with 20% fetal bovine serum, 50 µg/ml streptomycin, 50 UI penicillin, 4 mM L-glutamine, and a cocktail of human cytokines as previously established (50 ng/ml human stem cell factor, 20 ng/ml hFLT3-L, 10 ng/ml hIL-7 and 20 nM insulin (Miltenyi Biotec))[28]. […] Rescue by dC supplementation (1 µM) was also evaluated. OR0642 was then tested alone, or combined with dT or dT + dC at two concentrations (0.25 and 0.5 µM). Cell viability was evaluated by flow cytometry 72 h post-treatment. Proliferation indexes were calculated using the detection of CTV in the control replicates (DMSO) and the proliferation modeling tool of FlowJo™ Software 10.7.1 (BD Life Sciences). A control peak of undivided CTV-stained cells was systematically used to set the undivided fraction.

PDX UPNT775 = assay: as above; format: cell-based, human
Text: as §4

PDX UPNT885 = assay: as above; format: cell-based, human
Text: as §4

CCCN(c1nc(-c2nc(N)cc(N)n2)cs1)c1cc(-c2ccc(CCN3CCN(C)CC3)nc2)ccc1C [OR0602]
in vivo tolerance (Swiss male mice): unacceptable side effects

CCCN(c1nc(-c2nc(N)cc(N)n2)cs1)c1cc(-c2ccc(S(=O)(=O)N3CCN(C)CC3)cc2C(F)(F)F)ccc1C [OR0642]
remaining binding at 1 µM (ABL1-nonphosphorylated): 94%
remaining binding at 1 µM (PIM2): 100%
remaining binding at 1 µM (PIM3): 100%
remaining binding at 1 µM (PKAC-alpha): 85%
remaining binding at 1 µM (PLK3): 100%
remaining binding at 1 µM (PRKCE): 100%
remaining binding at 1 µM (ROCK2): 99%
remaining binding at 1 µM (TGFBR1): 98%
remaining binding at 1 µM (TIE2): 94%
remaining binding at 1 µM [1]: 100%
remaining binding at 1 µM (VEGFR2): 100%
remaining binding at 1 µM (YANK3): 97%
remaining binding at 1 µM (ZAP70): 97%
remaining binding at 1 µM (p38-alpha): 100%

Cc1cn([C@H]2C[C@H](O)[C@@H](CO)O2)c(=O)[nH]c1=O [dT, thymidine]
viability at 12 µM (PDX UPNT380; Homo sapiens, UPNT380, dT 12 µM, read-out: Cell viability, Mean (% viab)): 100%
viability at 37 µM (PDX UPNT380; Homo sapiens, UPNT380, dT 37 µM, read-out: Cell viability, Mean (% viab)): 85.4%
viability at 111 µM (PDX UPNT380; Homo sapiens, UPNT380, dT 111 µM, read-out: Cell viability, Mean (% viab)): 79.4%
viability at 333 µM (PDX UPNT380; Homo sapiens, UPNT380, dT 333 µM, read-out: Cell viability, Mean (% viab)): 76.9%
viability at 1000 µM (PDX UPNT380; Homo sapiens, UPNT380, dT 1000 µM, read-out: Cell viability, Mean (% viab)): 70.3%
viability at 3000 µM (PDX UPNT380; Homo sapiens, UPNT380, dT 3000 µM, read-out: Cell viability, Mean (% viab)): 67.7%
Response at dT100 µM (PDX UPNT380; PDX 380, dT 100 µM): 27
viability at 12 µM (PDX UPNT775; Homo sapiens, UPNT775, dT 12 µM, read-out: Cell viability, Mean (% viab)): 100%
viability at 37 µM (PDX UPNT775; Homo sapiens, UPNT775, dT 37 µM, read-out: Cell viability, Mean (% viab)): 86.3%
viability at 111 µM (PDX UPNT775; Homo sapiens, UPNT775, dT 111 µM, read-out: Cell viability, Mean (% viab)): 53.9%
viability at 333 µM (PDX UPNT775; Homo sapiens, UPNT775, dT 333 µM, read-out: Cell viability, Mean (% viab)): 40.5%
viability at 1000 µM (PDX UPNT775; Homo sapiens, UPNT775, dT 1000 µM, read-out: Cell viability, Mean (% viab)): 36%
viability at 3000 µM (PDX UPNT775; Homo sapiens, UPNT775, dT 3000 µM, read-out: Cell viability, Mean (% viab)): 36.7%
Response at dT100 µM (PDX UPNT775; PDX 775, dT 100 µM): 63
viability at 12 µM (PDX UPNT885; Homo sapiens, UPNT885, dT 12 µM, read-out: Cell viability, Mean (% viab)): 100%
viability at 37 µM (PDX UPNT885; Homo sapiens, UPNT885, dT 37 µM, read-out: Cell viability, Mean (% viab)): 85.3%
viability at 111 µM (PDX UPNT885; Homo sapiens, UPNT885, dT 111 µM, read-out: Cell viability, Mean (% viab)): 65.1%
viability at 333 µM (PDX UPNT885; Homo sapiens, UPNT885, dT 333 µM, read-out: Cell viability, Mean (% viab)): 49.5%
viability at 1000 µM (PDX UPNT885; Homo sapiens, UPNT885, dT 1000 µM, read-out: Cell viability, Mean (% viab)): 44.3%
viability at 3000 µM (PDX UPNT885; Homo sapiens, UPNT885, dT 3000 µM, read-out: Cell viability, Mean (% viab)): 39.5%
Response at dT100 µM (PDX UPNT885; PDX 885, dT 100 µM): 49
